Read-outs that look alike come from different tables or passages of the source.
Target: T1, Mcl-1 (UniProt P97287+Q07820)
T1 construct: amino acid residues 152-189 of mouse Mcl-1 fused with amino acid residues 209-327 of; 8 x His (N); TEV site (N); made in house; host or cells: E. coli BL21(DE3)pLysS
Assay: Competitive fluorescence anisotropy (FA) assay, FITC-NoxaB displacement from Mcl-1
Type: binding
Description: Fmoc, 9-fluorenylmethylcarbony. IC50 determined by non -linear regression of at least three experiments.
4. Fluorescence Anisotropy Binding Assay
Fluorescence anisotropy was carried out on a BMG Labtech clariostar microplate reader with a fluorescence anisotropy optic measuring at 482/530 nm. Low -binding, Corning 96 -well black plates were used and all reagents used in the assay were biological grade and purchased from Sigma Aldrich and Novabioche m. All solutions were made using MilliQ water .
Anisotropy values were automatically calculated using the following formula […]
Where r = anisotropy, l a = parallel emission light, lb = perpendicular emission light and I = total […]
KD was determined using GraphPad Prism Version 6.0 software, using the One Site – Total binding […]
Where Bmax is the maximum specific binding, KD is the equilibrium binding constant, and NS is the slope of nonspecific binding. […]
IC50 was determined using GraphPad Prism Version 6.0 software, using a four-parameter logistic model, according to precedent from Ottmann and co-workers.[5] Errors are the transformed greater extreme of the standard error. […]
For binding each well contained 10 µL of Mcl -1 protein in 10-fold dilutions (0.37 pM to 3.7 µM) […]
protein were dissolved in PBS: 0.05% Tween -20 buffer at pH 7.4. Reagents were incubated for 30 min at room temperature prior to reading. Bubbles were removed and 8 data points were generated.
Figure S 1: Fluorescence Anisotropy direct titration.
To confirm reproducibility of
(µ) and standard deviations (σ) were inputted into the following equation:
Inhibition screens were carried out using 10 nM Mcl -1, 5 nM fluorescently-tagged peptide and 100 µM of inhibitor. Compounds were dissolved in DMSO. […]
control (DMSO) were used to define the mini mum and maximum values and ensure the assay was […]
(1 picture or pasted object on this page, not shown here) […]
Bubbles were removed and 8 data points were generated. […]

[1] = Table S2, binding inhibition of FITC-NoxaB to Mcl-1, small molecules not tested against cell lines, at least three experiments, errors = transformed greater extreme of standard error, SEM, read-out: FA IC50
[2] = Table S2, binding inhibition of FITC-NoxaB to Mcl-1, small molecules not tested against cell lines, at least three experiments, errors = transformed greater extreme of standard error, read-out: FA IC50
[3] = Table 1, inhibition of binding of 5 nM FITC-NoxaB to 10 nM Mcl-1, PBS, 0.05% Tween-20, pH 7.4, non-linear regression of at least three experiments, errors = transformed greater extreme of standard error, [b] <100 means <100 μM and >10 μM, accurate value not determined, read-out: FA IC50
[4] = Table S1, binding inhibition of FITC-NoxaB to Mcl-1, * less than 100 µM and greater than 10 µM, accurate IC50 not determined, read-out: FA IC50
[5] = Table 1, inhibition of binding of 5 nM FITC-NoxaB to 10 nM Mcl-1, PBS, 0.05% Tween-20, pH 7.4, non-linear regression of at least three experiments, errors = transformed greater extreme of standard error, [b] <100 means <100 μM and >10 μM, accurate value not determined, SEM, read-out: FA IC50

T1 sequence (P97287 152-189 limits assumed): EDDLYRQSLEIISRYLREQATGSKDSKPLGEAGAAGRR
T1 sequence (Q07820 209-327 limits assumed): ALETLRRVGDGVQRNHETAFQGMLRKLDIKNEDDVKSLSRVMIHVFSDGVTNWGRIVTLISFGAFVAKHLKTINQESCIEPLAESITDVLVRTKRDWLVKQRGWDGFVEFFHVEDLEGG

## CCOc1ccc(-c2cn(CC(=O)O)nn2)cc1 [Compound S13]
[1]
  IC50: 1.32 ± 1.1 µM

## Fc1ccccc1Cn1cc(-c2ccccc2Cl)nn1 [Compound S14]
[1]
  IC50: 1.37 ± 0.938 µM

## CCC(C)c1cn(Cc2ccccc2)nn1 (centres unmarked) [Compound S15]
[1]
  IC50: 3.31 ± 0.488 µM

## COC(=O)[C@H](Cc1cn(CC(=O)O)nn1)NC(=O)OCC1c2ccccc2-c2ccccc21 [Compound S16]
[1]
  IC50: 5.28 ± 1.69 µM

## COC(=O)[C@H](Cc1cn(Cc2ccc(Br)cc2)nn1)NC(=O)OCC1c2ccccc2-c2ccccc21 [Compound S17]
[2]
  IC50: > 100 µM

## CCCCCCCc1cn(C23CC4CC(CC(C4)C2)C3)nn1 [Compound S18]
[2]
  IC50: > 100 µM

## CCCCCCCc1cn(Cc2ccccc2F)nn1 [Compound S19]
[2]
  IC50: > 100 µM

## AAQLRRIGD [Compound 5]
[3]
  IC50: < 100 µM

## AAQLRRIGD [Compound S1]
[4]
  IC50: < 100 µM

## KVNLRQKLLN [Compound 10]
[5]
  IC50: 1.2 µM

## KVNLRQKLLN [Compound 12]
[5]
  IC50: 4.3 ± 0.9 µM

## KVNLRQKLLN [Compound 15]
[3]
  IC50: < 100 µM

## KVNLRQKLLN [Compound S2]
[4]
  IC50: < 100 µM

## extended NoxaB peptide: the two NoxaB peptide fragments clicked together by CuAAC (AAQLRRIGDXKVNLRQKLLN; N-terminal acetyl)
5 nM FITC-NoxaB, 10 nM Mcl-1, read-out: IC50 (competitive FA assay, Mcl-1)
  IC50: 7.23 ± 0.88 µM
